From patent US12509444B2, “Compounds and methods for CD73 modulation and indications therefor” (Plexxikon Inc., priority 2019, dated 2025) come the findings set out here.

The target in one experiment is T1, human CD73 (Homo sapiens, UniProt P21589).
T1 construct: expressed in transfected cells
T1 sequence (P21589 27-549): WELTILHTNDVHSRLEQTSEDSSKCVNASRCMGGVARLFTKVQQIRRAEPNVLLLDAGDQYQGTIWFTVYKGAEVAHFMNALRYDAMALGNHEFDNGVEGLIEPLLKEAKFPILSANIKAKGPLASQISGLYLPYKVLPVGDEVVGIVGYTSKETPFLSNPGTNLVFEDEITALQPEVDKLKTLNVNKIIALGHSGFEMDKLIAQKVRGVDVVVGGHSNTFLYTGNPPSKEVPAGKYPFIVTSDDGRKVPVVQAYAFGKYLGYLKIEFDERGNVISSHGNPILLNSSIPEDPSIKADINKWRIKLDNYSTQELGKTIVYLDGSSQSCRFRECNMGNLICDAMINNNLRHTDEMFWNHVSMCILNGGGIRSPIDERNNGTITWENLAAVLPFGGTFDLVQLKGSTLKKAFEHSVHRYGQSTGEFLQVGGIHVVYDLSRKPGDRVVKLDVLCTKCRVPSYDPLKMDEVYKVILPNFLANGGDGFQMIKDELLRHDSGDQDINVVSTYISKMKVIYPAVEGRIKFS
Briefly: Inhibitor activity against CD73 in cell based assay (CD73 expressing CHO-K1 cells). To be noted: CHO-K1 cells expressing human CD73, 150 μM AMP, 4 hours of incubation; read-out: CHO-K1 CELL VARIANT: CD73 IC50. The protocol:
Determine Inhibitor Activity Against CD73 in Cell Based Assay
CD73 expressing CHO-K1 cell clones were generated upon stable transfection of a plasmid expressing human CD73 under the control of CMV promoter. Cells were selected in Ham's F-12K (Kaighn's) media supplemented with 10% fetal bovine serum and 1 mg/ml G418 at 37° C. in a humidified incubator supplied with 5% CO2. The assays were performed as follows. Cells were seeded in a 96 well plate in 50 μL of culture media at a density of 1×10^4 per well. Compound at a maximal concentration of 5 mM was serially diluted 1:3 in DMSO for a total of 8 point titration. A 2 μL aliquot of each dilution point was added to 248 μL culture media and 25 µL was added to each well, providing 10 μM compound at the maximum concentration point. AMP was diluted in culture media and 25 μL was added to each well with a final concentration of 150 μM. 4 wells containing 0.2% DMSO treated cells and AMP served as high controls and 4 wells containing media only with 0.2% DMSO and AMP served as low controls. After 4 hours of incubation, 20 μL of the supernatant was transferred to a 384 well plate. AMP level in supernatant was measured indirectly by adding 5 μL of CellTiter-Glo® 2.0 reagent and 5 μL of ATP with a final concentration of 1 μM. Following incubation of plate at room temperature for 30 minutes, luminescent signal was read on a Tecan plate reader. The percentage inhibition at individual concentrations relative to high and low controls was calculated. The data were analyzed by using nonlinear regression to generate IC50 values.

Experiment [1] has as its target T2, Human CD73 (amino acid residues 27-549) (Homo sapiens, UniProt P21589).
T2 construct: Human CD73 (amino acid residues 27-549); His tag (N); made in house; host or cells: E. coli
T2 sequence (P21589 27-549): T1 sequence (P21589 27-549)
Nature of the experiment: CD73 enzymatic assay (luciferase-based indirect assay, CellTiter-Glo). It counts as biochemical. To be noted: 0.4 nM CD73, 150 μM AMP, 1 hour at room temperature. The gist of the method: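 His-tagged human CD73 (27-549) from E. coli, 0.4 nM, with 150 μM AMP in 50 mM HEPES pH 7.4, 0.01% Tween 20; 1 h at room temperature. AMP remaining read by CellTiter-Glo 2.0 luminescence with 1 μM final ATP after 30 min. IC50 from nonlinear regression of % inhibition.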
On the technique in general: Cellular ATP, detected with luciferase, serves as a proxy for viable cell number.

Turning to `CS(=O)(=O)N1CCC(NC(=O)N[C@@H]2CCN(c3cn[nH]c(=O)c3Cl)C2)CC1` [P-0076, (R)-1-(1-(5-chloro-6-oxo-1,6-dihydropyridazin-4-yl)pyrrolidin-3-yl)-3-(1-(methylsulfonyl)piperidin-4-yl)urea], the IC50 (in general, the midpoint of a concentration-inhibition curve) lay within 10 to 100 µM at human CD73 and 0.001 to 10 µM in experiment [1].
`O=C(NC1CCCCC1)OC1CCN(c2cn[nH]c(=O)c2Cl)C1` (stereo not shown) [P-0077, 1-(5-chloro-6-oxo-1,6-dihydropyridazin-4-yl)pyrrolidin-3-yl cyclohexylcarbamate]: the half-inhibitory concentration (IC50) (at human CD73; in experiment [1]) was 0.001 to 10 µM throughout.
As for `O=C(NC1CCC1)N[C@@H]1CCN(c2cn[nH]c(=O)c2Cl)C1` [P-0085, (R)-1-(1-(5-chloro-6-oxo-1,6-dihydropyridazin-4-yl)pyrrolidin-3-yl)-3-cyclobutylurea], the IC50 on human CD73 was in the range of 10 to 100 µM; in experiment [1], 0.001 to 10 µM.
For `O=C(NC1CCS(=O)(=O)CC1)N[C@@H]1CCN(c2cn[nH]c(=O)c2Cl)C1` [P-0086, (R)-1-(1-(5-chloro-6-oxo-1,6-dihydropyridazin-4-yl)pyrrolidin-3-yl)-3-(1,1-dioxidotetrahydro-2H-thiopyran-4-yl)urea], the half-maximal inhibitory concentration (IC50) at human CD73 was in the range of 10 to 100 µM; in experiment [1], 0.001 to 10 µM.
Regarding `O=C(CO)NC1CCC(NC(=O)N[C@@H]2CCN(c3cn[nH]c(=O)c3Cl)C2)CC1` (stereo partly drawn) [P-0088, (R)-N-(4-(3-(1-(5-chloro-6-oxo-1,6-dihydropyridazin-4-yl)pyrrolidin-3-yl)ureido)cyclohexyl)-2-hydroxyacetamide], the IC50 is 10 to 100 µM at human CD73 and 0.001 to 10 µM in experiment [1].
With `CC(C)(C)OC(=O)N1CCC(NC(=O)O[C@@H]2CCN(c3cn[nH]c(=O)c3Cl)C2)CC1` [P-0089, tert-butyl (R)-4-((((1-(5-chloro-6-oxo-1,6-dihydropyridazin-4-yl)pyrrolidin-3-yl)oxy)carbonyl)amino) piperidine-1-carboxylate], the IC50 (on human CD73; in experiment [1]) was 0.001 to 10 µM throughout.
`CC(=O)N1CCC(NC(=O)O[C@@H]2CCN(c3cn[nH]c(=O)c3Cl)C2)CC1` [P-0090, (R)-1-(5-chloro-6-oxo-1,6-dihydropyridazin-4-yl)pyrrolidin-3-yl (1-acetylpiperidin-4-yl)carbamate]: the IC50 (at human CD73; in experiment [1]) was 0.001 to 10 µM in each case.
With `CS(=O)(=O)NC1CCC(NC(=O)N[C@@H]2CCN(c3cn[nH]c(=O)c3Cl)C2)CC1` (stereo partly drawn) [P-0091, (R)-N-(4-(3-(1-(5-chloro-6-oxo-1,6-dihydropyridazin-4-yl)pyrrolidin-3-yl)ureido)cyclohexyl) methanesulfonamide], the IC50 (on human CD73; in experiment [1]) was 0.001 to 10 µM throughout.
As to `O=C(NC1CC1)O[C@@H]1CCN(c2cn[nH]c(=O)c2Cl)C1` [P-0092, (R)-1-(5-chloro-6-oxo-1,6-dihydropyridazin-4-yl)pyrrolidin-3-yl cyclopropylcarbamate], the IC50 (at human CD73; in experiment [1]) was 0.001 to 10 µM in each case.
As to `O=C(Nc1ccccc1)O[C@@H]1CCN(c2cn[nH]c(=O)c2Cl)C1` [P-0093, (R)-1-(5-chloro-6-oxo-1,6-dihydropyridazin-4-yl)pyrrolidin-3-yl phenylcarbamate], the concentration for half-maximal inhibition (IC50) (at human CD73; in experiment [1]) was 0.001 to 10 µM each time.
For the molecule `O=C(Nc1ccc(Cl)cc1)O[C@@H]1CCN(c2cn[nH]c(=O)c2Cl)C1` [P-0094, (R)-1-(5-chloro-6-oxo-1,6-dihydropyridazin-4-yl)pyrrolidin-3-yl (4-chlorophenyl)carbamate], the IC50 on human CD73 was in the range of 10 to 100 µM; in experiment [1], 0.001 to 10 µM.
Turning to `O=C(NCC1CCCC1)O[C@@H]1CCN(c2cn[nH]c(=O)c2Cl)C1` [P-0095, (R)-1-(5-chloro-6-oxo-1,6-dihydropyridazin-4-yl)pyrrolidin-3-yl (cyclopentylmethyl)carbamate], the IC50 (on human CD73; in experiment [1]) was 0.001 to 10 µM throughout.
In the case of `O=C(NCC(F)(F)F)O[C@@H]1CCN(c2cn[nH]c(=O)c2Cl)C1` [P-0096, (R)-1-(5-chloro-6-oxo-1,6-dihydropyridazin-4-yl)pyrrolidin-3-yl (2,2,2-trifluoroethyl)carbamate], the IC50 (on human CD73; in experiment [1]) was 0.001 to 10 µM each time.
For `O=C(NC1CCOCC1)O[C@@H]1CCN(c2cn[nH]c(=O)c2Cl)C1` [P-0097, (R)-1-(5-chloro-6-oxo-1,6-dihydropyridazin-4-yl)pyrrolidin-3-yl (tetrahydro-2H-pyran-4-yl)carbamate], the IC50 (at human CD73; in experiment [1]) was 0.001 to 10 µM throughout.
On to `CN(C(=O)O[C@@H]1CCN(c2cn[nH]c(=O)c2Cl)C1)C1CCCCC1` [P-0099, (R)-1-(5-chloro-6-oxo-1,6-dihydropyridazin-4-yl)pyrrolidin-3-yl cyclohexyl(methyl)carbamate], for which the half-maximal inhibitory concentration (IC50) at human CD73 was 10 to 100 µM; in experiment [1], 0.001 to 10 µM.
The matching figures for `O=C(NCc1ccccc1)O[C@@H]1CCN(c2cn[nH]c(=O)c2Cl)C1` [P-0100, (R)-1-(5-chloro-6-oxo-1,6-dihydropyridazin-4-yl)pyrrolidin-3-yl benzylcarbamate]: 10 to 100 µM and 0.001 to 10 µM.
Take `O=C(Nc1cccc(Cl)c1)O[C@@H]1CCN(c2cn[nH]c(=O)c2Cl)C1` [P-0101, (R)-1-(5-chloro-6-oxo-1,6-dihydropyridazin-4-yl)pyrrolidin-3-yl (3-chlorophenyl)carbamate]: the IC50 (on human CD73; in experiment [1]) was 0.001 to 10 µM in each case.
As for `CCOC(=O)N1CCC(NC(=O)O[C@@H]2CCN(c3cn[nH]c(=O)c3Cl)C2)CC1` [P-0102, ethyl (R)-4-((((1-(5-chloro-6-oxo-1,6-dihydropyridazin-4-yl)pyrrolidin-3-yl)oxy)carbonyl)amino) piperidine-1-carboxylate], the IC50 (on human CD73; in experiment [1]) was 0.001 to 10 µM throughout.
Take `O=C(N[C@@H]1CCN(c2cn[nH]c(=O)c2Cl)C1)N[C@@H]1CCN(c2cn[nH]c(=O)c2Cl)C1` [P-0103, 1,3-bis((R)-1-(5-chloro-6-oxo-1,6-dihydropyridazin-4-yl)pyrrolidin-3-yl)urea]: the figures for the IC50 (on human CD73; in experiment [1]) were 10 to 100 µM and 0.001 to 10 µM, respectively.
As for `O=C(NC1CC(F)(F)C1)O[C@@H]1CCN(c2cn[nH]c(=O)c2Cl)C1` [P-0104, (R)-1-(5-chloro-6-oxo-1,6-dihydropyridazin-4-yl)pyrrolidin-3-yl (3,3-difluorocyclobutyl)carbamate], the IC50 (on human CD73; in experiment [1]) was 0.001 to 10 µM throughout.
Consider `O=C(NC1CCN(C(=O)CO)CC1)O[C@@H]1CCN(c2cn[nH]c(=O)c2Cl)C1` [P-0105, (R)-1-(5-chloro-6-oxo-1,6-dihydropyridazin-4-yl)pyrrolidin-3-yl (1-(2-hydroxyacetyl)piperidin-4-yl)carbamate], for which the half-maximal inhibitory concentration (IC50) (at human CD73; in experiment [1]) was 0.001 to 10 µM in each case.
As to `O=C(NC1CCC(F)(F)CC1)O[C@@H]1CCN(c2cn[nH]c(=O)c2Cl)C1` [P-0106, (R)-1-(5-chloro-6-oxo-1,6-dihydropyridazin-4-yl)pyrrolidin-3-yl (4,4-difluorocyclohexyl)carbamate], the IC50 (on human CD73; in experiment [1]) was 0.001 to 10 µM throughout.
Regarding `O=C(N[C@H]1CCOC1)O[C@@H]1CCN(c2cn[nH]c(=O)c2Cl)C1` [P-0107, (R)-1-(5-chloro-6-oxo-1,6-dihydropyridazin-4-yl)pyrrolidin-3-yl ((S)-tetrahydrofuran-3-yl)carbamate], the IC50 (at human CD73; in experiment [1]) was 0.001 to 10 µM each time.
